Data as given in patent US20060134670A1, “Enabling tools to identify ligands for hormone nuclear receptors” (priority 2004, published 2006).

How the values were obtained:
PPARδ (NR1C2) = target: T1, PPARδ (NR1C2) (Homo sapiens, UniProt Q03181); assay: R-SAT single receptor format, PPARδ; format: cell-based; conditions: NIH-3T3 cells transfected with PPARδ
T1 construct: expressed in transfected cells; host or cells: NIH-3T3
T1 sequence (Q03181 1-441): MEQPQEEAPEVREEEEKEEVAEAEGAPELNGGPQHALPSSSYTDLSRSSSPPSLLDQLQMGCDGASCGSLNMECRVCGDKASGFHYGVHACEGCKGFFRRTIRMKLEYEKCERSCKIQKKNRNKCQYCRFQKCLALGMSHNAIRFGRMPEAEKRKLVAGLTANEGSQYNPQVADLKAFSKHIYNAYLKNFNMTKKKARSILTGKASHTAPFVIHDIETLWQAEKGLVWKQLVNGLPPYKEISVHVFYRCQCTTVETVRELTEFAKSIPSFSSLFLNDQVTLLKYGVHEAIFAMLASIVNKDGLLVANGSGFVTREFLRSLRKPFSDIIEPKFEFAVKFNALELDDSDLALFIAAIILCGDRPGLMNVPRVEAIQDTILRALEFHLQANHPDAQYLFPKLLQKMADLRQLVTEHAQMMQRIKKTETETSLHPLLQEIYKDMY
Source text: (§1) Curves were generated using XLFit software ([…]).

[1] = target: T2, CARα and RXR nuclear receptors (heterodimer) (Homo sapiens, UniProt Q14994); assay: R-SAT inverse agonism, CARα/RXR; format: cell-based; conditions: cells transfected with CARα and RXR, β-galactosidase activity, FIG. 4A
T2 construct: expressed in transfected cells
T2 sequence (Q14994 1-348 isoform Q14994-2): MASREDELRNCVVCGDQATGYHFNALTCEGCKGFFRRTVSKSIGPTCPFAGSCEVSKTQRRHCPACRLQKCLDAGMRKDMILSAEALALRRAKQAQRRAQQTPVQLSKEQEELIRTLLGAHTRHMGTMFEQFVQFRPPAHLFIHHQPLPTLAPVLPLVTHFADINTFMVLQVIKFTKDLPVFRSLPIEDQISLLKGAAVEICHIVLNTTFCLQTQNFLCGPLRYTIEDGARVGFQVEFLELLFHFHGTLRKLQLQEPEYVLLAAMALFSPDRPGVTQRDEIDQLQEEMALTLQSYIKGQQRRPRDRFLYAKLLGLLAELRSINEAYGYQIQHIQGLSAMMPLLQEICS
T2 sequence (P48443 1-463 partner): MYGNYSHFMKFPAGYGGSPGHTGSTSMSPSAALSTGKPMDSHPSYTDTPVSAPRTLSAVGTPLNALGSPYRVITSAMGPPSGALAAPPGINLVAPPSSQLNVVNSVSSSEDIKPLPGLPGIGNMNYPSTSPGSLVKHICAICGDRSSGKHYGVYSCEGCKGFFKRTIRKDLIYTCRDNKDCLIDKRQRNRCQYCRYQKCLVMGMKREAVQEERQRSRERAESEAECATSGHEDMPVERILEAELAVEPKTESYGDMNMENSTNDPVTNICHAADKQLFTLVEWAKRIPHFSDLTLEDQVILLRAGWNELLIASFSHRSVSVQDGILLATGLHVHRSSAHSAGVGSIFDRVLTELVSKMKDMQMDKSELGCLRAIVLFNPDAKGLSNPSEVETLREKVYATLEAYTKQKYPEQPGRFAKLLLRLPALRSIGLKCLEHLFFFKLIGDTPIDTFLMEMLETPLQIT
Source text: as §1

LXRα (NR1H3) = target: T3, LXRα (NR1H3) (Homo sapiens, UniProt Q13133); assay: R-SAT single receptor format, LXRα; format: cell-based; conditions: NIH-3T3 cells transfected with LXRα
T3 construct: expressed in transfected cells; host or cells: NIH-3T3
T3 sequence (Q13133 1-447): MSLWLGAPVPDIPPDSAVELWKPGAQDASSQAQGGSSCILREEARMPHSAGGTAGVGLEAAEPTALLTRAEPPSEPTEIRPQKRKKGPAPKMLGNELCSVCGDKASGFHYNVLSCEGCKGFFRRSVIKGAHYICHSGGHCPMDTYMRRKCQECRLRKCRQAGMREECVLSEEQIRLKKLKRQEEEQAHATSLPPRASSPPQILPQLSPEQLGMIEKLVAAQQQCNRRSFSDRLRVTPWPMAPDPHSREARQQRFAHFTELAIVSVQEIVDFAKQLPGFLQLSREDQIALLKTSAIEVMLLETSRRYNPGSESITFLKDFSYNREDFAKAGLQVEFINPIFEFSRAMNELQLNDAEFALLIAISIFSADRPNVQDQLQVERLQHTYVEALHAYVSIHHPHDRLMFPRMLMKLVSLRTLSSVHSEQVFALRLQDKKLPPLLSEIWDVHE
Source text: as §1

LXRβ (NR1H2) = target: T4, LXRβ (NR1H2) (Homo sapiens, UniProt P55055); assay: R-SAT single receptor format, LXRβ; format: cell-based; conditions: NIH-3T3 cells transfected with LXRβ
T4 construct: expressed in transfected cells; host or cells: NIH-3T3
T4 sequence (P55055 1-460): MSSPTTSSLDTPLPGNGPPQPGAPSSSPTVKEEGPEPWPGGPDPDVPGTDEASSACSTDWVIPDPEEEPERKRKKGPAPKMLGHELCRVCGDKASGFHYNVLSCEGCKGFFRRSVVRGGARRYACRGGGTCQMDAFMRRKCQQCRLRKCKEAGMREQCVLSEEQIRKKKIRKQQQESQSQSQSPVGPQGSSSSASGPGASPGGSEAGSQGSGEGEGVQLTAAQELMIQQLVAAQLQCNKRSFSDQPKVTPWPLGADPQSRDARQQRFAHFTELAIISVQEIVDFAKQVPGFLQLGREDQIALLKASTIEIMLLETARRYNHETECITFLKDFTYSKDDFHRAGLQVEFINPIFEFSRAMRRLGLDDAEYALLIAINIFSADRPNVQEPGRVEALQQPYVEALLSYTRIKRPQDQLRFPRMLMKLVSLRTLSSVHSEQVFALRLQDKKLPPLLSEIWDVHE
Source text: as §1

PXR/RXR heterodimer = target: T5, PXR/RXR heterodimer (Homo sapiens, UniProt O75469); conditions: 5 days
T5 sequence (O75469 1-434): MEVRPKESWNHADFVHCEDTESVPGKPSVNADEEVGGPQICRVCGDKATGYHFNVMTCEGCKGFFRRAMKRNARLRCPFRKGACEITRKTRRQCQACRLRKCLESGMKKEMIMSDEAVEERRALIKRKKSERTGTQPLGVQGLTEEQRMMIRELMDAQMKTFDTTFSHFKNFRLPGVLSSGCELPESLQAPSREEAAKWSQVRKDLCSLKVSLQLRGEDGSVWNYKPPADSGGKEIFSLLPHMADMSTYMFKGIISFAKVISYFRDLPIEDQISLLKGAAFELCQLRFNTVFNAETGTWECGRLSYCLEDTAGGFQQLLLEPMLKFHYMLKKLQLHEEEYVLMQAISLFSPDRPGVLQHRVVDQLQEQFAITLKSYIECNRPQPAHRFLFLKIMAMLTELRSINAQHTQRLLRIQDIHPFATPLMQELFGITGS
T5 sequence (P48443 1-463 partner): T2 sequence (P48443 1-463 partner)
Procedure: On day one, cells were trypsinized, centrifuged and plated at 8,000 cells/well in a 96-well plate in 100 μl/well of Dubelcco's Modified Eagle's Medium (DMEM), 10% calf serum. On day two, cells were transfected using the transfection reagent Superfect® (Qiagen, Inc.) as recommended by the manufacturer. Various doses of the nuclear receptor plasmid DNA were transfected. DNA mixtures included 0.1 to 10 ng/well of receptors DNA, 20 to 30 ng/well of β-galactosidase plasmid DNA (pSV β-galactosidase, Promega) and 15 μl of Superfect®. On day three, the media was replaced by DMEM with 2% Cyto-SF3 (Kemp Biotechnologies, Inc.) containing variable amounts of the compounds being tested. […] All data were obtained by measuring the change in absorbance at 420 nm using an automated plate reader. EC50 values were calculated using the equation r=A+B(x/(c+c)), where A=minimum response, B=maximum response minus maximum response, c=EC50, r=response, and x=concentration of ligand. Curves were generated using XLFit software (Microsoft).
The coactivators GRIP1 (Glucocorticoid Receptor Interacting Protein 1) (GenBank U39060) and SRC-1 (Steroid Receptor Coactivator 1) (GenBank U90661) were used in this assay. In summary, plasmid DNA encoding the coactivator(s) were transfected along with the aforementioned transfection mixture (containing the PXR, RXR, and β-Gal plasmid DNAs).

## CCCCC[C@H](O)/C=C/[C@@H]1[C@H]2C/C(=C/CCCC(=O)O)C[C@H]2C[C@H]1O [carbaprostacyclin]
PPARδ (NR1C2)
  EC50: 200 to 500 nM

## C[C@]12CC[C@@H](O)C[C@@H]1CC[C@@H]1[C@@H]2CC[C@]2(C)C=CC[C@@H]12 [Androstenol]
[1]
  inverse agonist activity: inverse agonist activity

## CC(C)CC[C@@H](O)[C@@H](C)[C@H]1CC[C@H]2[C@@H]3CC=C4C[C@@H](O)CC[C@]4(C)[C@H]3CC[C@]12C [22(R)OH-Cholesterol]
LXRα (NR1H3)
  EC50: 3000 to 5000 nM
LXRβ (NR1H2)
  EC50: 3000 to 5000 nM

## CO[C@H]1/C=C/O[C@@]2(C)Oc3c(C)c(O)c4c(O)c(c(/C=N/N5CCN(C)CC5)c(O)c4c3C2=O)NC(=O)/C(C)=C\C=C\[C@H](C)[C@H](O)[C@@H](C)[C@@H](O)[C@@H](C)[C@H](OC(C)=O)[C@@H]1C [rifampicin]
PXR/RXR heterodimer
  efficacy of pharmacological response: 5-10%
